One may read the inhibition as the relative decrease from the control value, in per cent.

From publication PMC7517944, “Design and Synthesis of Novel Nordihydroguaiaretic Acid (NDGA) Analogues as Potential FGFR1 Kinase Inhibitors With Anti-Gastric Activity and Chemosensitizing Effect” (Frontiers in Pharmacology, 2020) come the findings set out here.

T1 sequence (P11362 22-822): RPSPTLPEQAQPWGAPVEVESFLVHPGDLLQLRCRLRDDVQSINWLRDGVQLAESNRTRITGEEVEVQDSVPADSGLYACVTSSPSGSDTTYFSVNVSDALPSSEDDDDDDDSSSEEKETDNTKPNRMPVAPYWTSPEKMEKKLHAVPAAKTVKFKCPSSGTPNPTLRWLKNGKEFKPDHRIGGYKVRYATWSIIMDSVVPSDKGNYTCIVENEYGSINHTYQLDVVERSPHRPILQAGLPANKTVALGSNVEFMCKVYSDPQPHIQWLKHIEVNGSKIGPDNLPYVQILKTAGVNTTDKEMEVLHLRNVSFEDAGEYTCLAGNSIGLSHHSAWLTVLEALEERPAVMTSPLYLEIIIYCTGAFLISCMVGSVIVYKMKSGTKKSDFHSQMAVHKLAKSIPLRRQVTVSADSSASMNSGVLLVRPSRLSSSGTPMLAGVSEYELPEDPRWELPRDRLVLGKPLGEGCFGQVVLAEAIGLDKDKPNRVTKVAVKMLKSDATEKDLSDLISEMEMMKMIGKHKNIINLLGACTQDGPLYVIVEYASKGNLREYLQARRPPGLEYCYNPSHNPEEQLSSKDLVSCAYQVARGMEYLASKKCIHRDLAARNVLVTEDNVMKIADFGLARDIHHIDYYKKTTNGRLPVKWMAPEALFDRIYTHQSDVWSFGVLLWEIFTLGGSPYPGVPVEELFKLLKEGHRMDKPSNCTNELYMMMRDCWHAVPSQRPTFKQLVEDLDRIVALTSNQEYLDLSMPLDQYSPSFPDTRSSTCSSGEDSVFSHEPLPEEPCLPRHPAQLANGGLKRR

One assay has as its target T1, FGFR1 kinase (Homo sapiens, UniProt P11362). Kind of assay: cell-free Caliper mobility shift kinase assay, […] inhibition at […]; also lowers p-FGFR1 in cells. Type of assay: biochemical.
For the molecule `COc1cccc(/C=C2\COC/C(=C\c3ccc(O)c(O)c3)C2=O)c1OC` [Y14, (3E,5E)-3-(3,4-dihydroxybenzylidene)-5-(2,3-dimethoxybenzylidene)dihydro-2H-pyran-4(3H)-one], the inhibition at 20 µM came out at 92%.

The target of a further assay is T1, FGFR1 kinase. Kind of assay: cell-free Caliper mobility shift kinase assay, inhibition at […]. In kind it is biochemical.
Regarding `COc1ccc(/C=C2\COC/C(=C\c3ccc(O)c(O)c3)C2=O)cc1O` [Y9, (3E,5E)-3-(3,4-dihydroxybenzylidene)-5-(3-hydroxy-4-methoxybenzylidene)dihydro-2H-pyran-4(3H)-one], the inhibition at 20 µM turned out to be 53.5%.
Turning to `O=C1/C(=C/c2ccc(O)cc2)COC/C1=C\c1ccc(O)c(O)c1` [Y5, (3E,5E)-3-(3,4-dihydroxybenzylidene)-5-(4-hydroxybenzylidene)dihydro-2H-pyran-4(3H)-one], the inhibition at 20 µM is 78.5%.
Still for that read-out and setting: the figure for `O=C1/C(=C/c2ccc(N3CCOCC3)cc2)COC/C1=C\c1ccc(O)c(O)c1` [Y13, (3E,5E)-3-(3,4-dihydroxybenzylidene)-5-(4-morpholinobenzylidene)dihydro-2H-pyran-4(3H)-one] is 71.4%; for `O=C1/C(=C/c2ccc(O)c(O)c2)COC/C1=C\c1ccc(O)c(O)c1` [Af23] it is 92.8%; for `COc1ccc(OC)c(/C=C2\COC/C(=C\c3ccc(O)c(O)c3)C2=O)c1` [Y15, (3E,5E)-3-(3,4-dihydroxybenzylidene)-5-(2,5-dimethoxybenzylidene)dihydro-2H-pyran-4(3H)-one] it is 67.6%.
In the case of `COc1cc(/C=C2\COC/C(=C\c3ccc(O)c(O)c3)C2=O)ccc1O` [Y2, (3E,5E)-3-(3,4-dihydroxybenzylidene)-5-(4-hydroxy-3-methoxybenzylidene)dihydro-2H-pyran-4(3H)-one], the inhibition at 20 µM was determined as 55.7%.
On the same count and under the same terms, the figure for `COc1ccccc1/C=C1\COC/C(=C\c2ccc(O)c(O)c2)C1=O` [Y11, (3E,5E)-3-(3,4-dihydroxybenzylidene)-5-(2-methoxybenzylidene)dihydro-2H-pyran-4(3H)-one] is 54.2%; for `O=C1/C(=C/c2cccc(O)c2)COC/C1=C\c1ccc(O)c(O)c1` [Y7, (3E,5E)-3-(3,4-dihydroxybenzylidene)-5-(3-hydroxybenzylidene)dihydro-2H-pyran-4(3H)-one] it is 73.7%.
